Experimental data as given in US12138256B2, “Treatment of cardiopulmonary disorders” (Bayer Aktiengesellschaft, priority 2021, dated 2024).
Where “and” joins values, the source holds several entries; their conditions need not be identical. Identical values can stand only once. Like-named read-outs stand apart in the source and are kept apart here.

Key:
[1] = tested on: hypoxia induced PAP increase in conscious dogs; experiment: Haemodynamics in conscious hypoxia challenged dogs (C-2.2); format: in vivo, dog; design: PAP, absolute values for each animal: unit: mmHg; conditions: for mPAP decrease during Hypoxia, each animal / mPAP decrease during Hypoxia, mean +/− SEM: n = 3
Protocol: Experiments were carried out in anesthetized Göttingen minipigs, anesthetized rats and conscious, telemetrically instrumented dogs. Acute pulmonary hypertension was induced for example by infusion of a thromboxane A2 analogon, by acute hypoxia treatment or hypoxia treatment over a number of weeks and/or by administration of monocrotaline. Test substances were applied via nebulization using the Nebutec® or Aeroneb® Pro nebulizer system, and/or by means of powder and/or solution applicators for experimental intratracheal administration (Liquid MicroSprayer®, Dry Powder Insufflator™, MicroSprayer®, Penn-Century Inc., Wyndmoor, PA, USA) or after solid nebulization inserted into the inspiration arm of the ventilation. Compounds were employed as solids or solutions depending on the molecular structure and the technical possibility depending on the experiment. The haemodynamic signals were recorded and evaluated by means of pressure transducers/amplifiers (Combitransducer B. Braun, Melsungen, Germany or CardioMEMS Inc., Atlanta, GA, USA) and Ponemah® or CardioMems® as data aquisition software. After long-term experiments (for example monocrotaline rat), it is also possible to carry out a histological evaluation.
We evaluated the lung-selectivity and duration of effects of comparative example 11 under conscious conditions, in another species, and under a more physiological stimulus for PAP increase. Dogs were exposed to hypoxia for 30 minutes to induce a hypoxia-mediated PAP increase and comparative example 11 (100 μg/kg nominal dose) was applied by inhalation 1, 5, 12, 16 and 24 hours before hypoxia.
The hypoxic dog model was also used to compare different drug candidates wrt duration of action under conscious conditions.

[2] = tested on: rabbit saphenous artery; experiment: Vasorelaxant effect in vitro: phenylephrine-induced contraction of rabbit saphenous artery rings (C-1.1); conditions: for % contraction (PE-induced contraction of rabbit saphenous artery): mean +/− SEM; for IC50: Oryctolagus cuniculus, read-out: IC50, inhibition of phenylephrine induced contractions of rabbit saphenous artery rings
Protocol: Rabbits were anaesthetized and sacrificed by intravenous injection of thiopental sodium (about 50 mg/kg) and exsanguinated. The saphenous artery was removed and divided into rings 3 mm wide. The rings were mounted singly on in each case a pair of triangular hooks open at the end and made of 0.3 mm-thick special wire (Remanium®). Each ring was placed under an initial tension in 5 ml organ baths with Krebs-Henseleit solution which was at 37° C., was gassed with carbogen and had the following composition: NaCl 119 mM; KCl 4.8 mM; CaCl2)×2 H2O 1 mM; MgSO4×7 H2O 1.4 mM; KH2PO41.2 mM; NaHCO325 mM; glucose 10 mM; bovine serum albumin 0.001%. The force of contraction was detected with Statham UC2 cells, amplified and digitized via A/D converters (DAS-1802 HC, Keithley Instruments, Munich) and recorded in parallel on chart recorders. Contractions were induced by addition of phenylephrine.
The concentration necessary to reduce the contraction reached in the preceding control by 50% was calculated from this (IC50). The standard application volume was 5 μl. The proportion of DMSO in the bath solution corresponded to 0.1%.

[3] = Thermal stability of the solid (90° C., 7 days, HPLC peak areas); format: physicochemical
Protocol: 0.3 mg of the test compound, e.g. comparative example 11 were solved in 0.1 ml dimethylsulfoxide and 0.4 ml acetonitrile. Then 1.0 ml water was added. For complete dissolution the HPLC vial was shaken and sonicated. This solution was immediately analyzed by HPLC (reference at t0). 0.3 mg of the test compound was weighed into another HPLC vial. The vial was capped and stored for 7 days in a heating block at 90° C.
After this time the vial was decapped and 0.1 ml dimethylsulfoxide and 0.4 ml acetonitrile were added to the stressed compound. Then 1.0 ml water was added. For complete dissolution the HPLC vial was shaken and sonicated. The sample was analyzed by HPLC (sample after 1 week). The peak areas in percentage are used for quantification.

[4] = Protein binding via Transil assay, monkey plasma; format: in vitro ADME; conditions: Monkey Cynomolgus plasma
Excerpt: (§1) The distribution of a test substance between Transil® (phosphatidylcholine lipid bilayers immobilized on silica beads) and plasma is a characteristic feature of any pharmaceutical compound and is dependent on its extent of binding to plasma proteins. By comparing the distribution between Transil® and buffer with the distribution between Transil® and plasma of any species of interest, the unbound fraction in the plasma of the respective animal species can be calculated in vitro. The respective plasma and buffer concentrations were determined via a radioactivity analysis. A detailed description of the method and its validation was published by Schuhmacher et al. (2).

[5] = tested on: plasma proteins; experiment: Protein binding via Transil assay, dog plasma; format: in vitro ADME; conditions: dog plasma
Excerpt: as §1

[6] = 100 μg/kg nominal dose inhaled, 1-2 h post inhalation
[7] = 100 μg/kg nominal dose inhaled, 5-6 h post inhalation
[8] = 100 μg/kg nominal dose inhaled, 12-13 h post inhalation
[9] = 100 μg/kg nominal dose inhaled, 16-17 h post inhalation
[10] = 100 μg/kg nominal dose inhaled, 24-25 h post inhalation

O=C(O)c1ccc(CCN(CCc2ccccc2OCc2ccc(-c3ccc(C(F)(F)F)cc3)cc2Cl)[C@H]2CCCc3nc(C(=O)O)ccc32)cc1 [comparative example 11, (5S)-5-{[2-(4-carboxyphenyl)ethyl][2-(2-{[3-chloro-4′-(trifluoromethyl)[biphenyl]-4-yl]methoxy}phenyl)ethyl]amino}-5,6,7,8-tetrahydroquinoline-2-carboxylic acid]
effects on HR ([1]; 100 μg/kg nominal dose inhaled): No effects on HR | PAP, absolute values for each animal ([1]; 100 μg/kg nominal dose inhaled 1 h before hypoxia, time 4 min): 10 and 13 and 8 | PAP, absolute values for each animal ([1]; 100 μg/kg nominal dose inhaled 1 h before hypoxia, time 6 min): 12 and 13 and 8 | PAP, absolute values for each animal ([1]; 100 μg/kg nominal dose inhaled 1 h before hypoxia, time 8 min): 10 and 12 and 9 | PAP, absolute values for each animal ([1]; 100 μg/kg nominal dose inhaled 16 h before hypoxia, time 22 min): 23 (2×) and 12 | PAP, absolute values for each animal ([1]; 100 μg/kg nominal dose inhaled 16 h before hypoxia, time 24 min): 21 and 27 and 14 | PAP, absolute values for each animal ([1]; 100 μg/kg nominal dose inhaled 16 h before hypoxia, time 26 min): 23 and 24 and 12 | PAP, absolute values for each animal ([1]; 100 μg/kg nominal dose inhaled 16 h before hypoxia, time 28 min): 21 and 25 and 15 | PAP, absolute values for each animal ([1]; 100 μg/kg nominal dose inhaled 16 h before hypoxia, time 30 min): 21 and 23 and 14 | PAP, absolute values for each animal ([1]; 100 μg/kg nominal dose inhaled 16 h before hypoxia, time 32 min): 18 and 26 and 16 | PAP, absolute values for each animal ([1]; 100 μg/kg nominal dose inhaled 16 h before hypoxia, time 34 min): 18 and 28 and 15 | PAP, absolute values for each animal ([1]; 100 μg/kg nominal dose inhaled 16 h before hypoxia, time 36 min): 17 and 25 and 18 | PAP, absolute values for each animal ([1]; 100 μg/kg nominal dose inhaled 16 h before hypoxia, time 38 min): 18 and 27 and 17 | PAP, absolute values for each animal ([1]; 100 μg/kg nominal dose inhaled 16 h before hypoxia, time 40 min): 17 (2×) and 28 | PAP, absolute values for each animal ([1]; 100 μg/kg nominal dose inhaled 16 h before hypoxia, time 42 min): 9 and 19 and 13 | PAP, absolute values for each animal ([1]; 100 μg/kg nominal dose inhaled 16 h before hypoxia, time 44 min): 7 and 18 and 9 | PAP, absolute values for each animal ([1]; 100 μg/kg nominal dose inhaled 16 h before hypoxia, time 46 min): 7 and 18 and 6 | PAP, absolute values for each animal ([1]; 100 μg/kg nominal dose inhaled 16 h before hypoxia, time 48 min): 6 and 16 and 9 | PAP, absolute values for each animal ([1]; 100 μg/kg nominal dose inhaled 16 h before hypoxia, time 50 min): 7 and 15 and 8 | PAP, absolute values for each animal ([1]; 100 μg/kg nominal dose inhaled 24 h before hypoxia, time 0 min): 10 and 15 (2×) | PAP, absolute values for each animal ([1]; 100 μg/kg nominal dose inhaled 24 h before hypoxia, time 2 min): 9 and 14 and 12 | PAP, absolute values for each animal ([1]; 100 μg/kg nominal dose inhaled 24 h before hypoxia, time 4 min): 8 and 14 and 10 | PAP, absolute values for each animal ([1]; 100 μg/kg nominal dose inhaled 24 h before hypoxia, time 6 min): 8 and 16 and 11 | PAP, absolute values for each animal ([1]; 100 μg/kg nominal dose inhaled 24 h before hypoxia, time 8 min): 8 and 14 and 9 | PAP, absolute values for each animal ([1]; 100 μg/kg nominal dose inhaled 24 h before hypoxia, time 10 min): 9 and 11 and 10 | PAP, absolute values for each animal ([1]; 100 μg/kg nominal dose inhaled 24 h before hypoxia, time 12 min): 20 (2×) and 15 | PAP, absolute values for each animal ([1]; 100 μg/kg nominal dose inhaled 24 h before hypoxia, time 14 min): 23 and 22 and 19 | PAP, absolute values for each animal ([1]; 100 μg/kg nominal dose inhaled 24 h before hypoxia, time 16 min): 27 and 24 and 22 | PAP, absolute values for each animal ([1]; 100 μg/kg nominal dose inhaled 24 h before hypoxia, time 18 min): 27 and 26 and 20 | PAP, absolute values for each animal ([1]; 100 μg/kg nominal dose inhaled 24 h before hypoxia, time 20 min): 29 (2×) and 23 | PAP, absolute values for each animal ([1]; 100 μg/kg nominal dose inhaled 24 h before hypoxia, time 22 min): 27 and 30 and 22 | PAP, absolute values for each animal ([1]; 100 μg/kg nominal dose inhaled 24 h before hypoxia, time 24 min): 26 and 28 and 22 | PAP, absolute values for each animal ([1]; 100 μg/kg nominal dose inhaled 24 h before hypoxia, time 26 min): 24 and 29 and 17 | PAP, absolute values for each animal ([1]; 100 μg/kg nominal dose inhaled 24 h before hypoxia, time 28 min): 26 and 29 and 20 | PAP, absolute values for each animal ([1]; 100 μg/kg nominal dose inhaled 24 h before hypoxia, time 30 min): 24 | efficacy (PAP decrease), head to head ([1]; 100 μg/kg nominal dose inhaled, up to 6 hrs after inhalation): comparable efficacy | mPAP decrease during Hypoxia, each animal [1, 6]: −12.44 mmHg and −11.44 mmHg and −10.13 mmHg | mPAP decrease during Hypoxia, mean +/− SEM [1, 6]: −11.33 ± 0.67 mmHg | mPAP decrease during Hypoxia, each animal [1, 7]: −16.13 mmHg and −5.44 mmHg and −8.75 mmHg | mPAP decrease during Hypoxia, mean +/− SEM [1, 7]: −10.10 ± 3.16 mmHg | mPAP decrease during Hypoxia, each animal [1, 8]: −3.44 mmHg and −4.81 mmHg and −1.69 mmHg | mPAP decrease during Hypoxia, mean +/− SEM [1, 8]: −3.31 ± 0.90 mmHg | mPAP decrease during Hypoxia, each animal [1, 9]: −2.25 mmHg and −4.25 mmHg and −3.00 mmHg | mPAP decrease during Hypoxia, mean +/− SEM [1, 9]: −3.17 ± 0.58 mmHg | mPAP decrease during Hypoxia, each animal [1, 10]: −0.13 mmHg and −1.94 mmHg and −0.50 mmHg | mPAP decrease during Hypoxia, mean +/− SEM [1, 10]: −0.85 ± 0.55 mmHg | PAP decrease, head to head ([1]; 100 μg/kg nominal dose, 12 and 16 hrs after inhalation): more effective PAP decrease for comparative example 11 compared to comparative example 4 | % contraction (PE-induced contraction of rabbit saphenous artery) ([2]; 10^−5 M/L, incubation time 0.5 h): 19 ± 3.0% | % contraction (PE-induced contraction of rabbit saphenous artery) ([2]; 10^−6 M/L, incubation time 0.5 h): 59 ± 4.9% | % contraction (PE-induced contraction of rabbit saphenous artery) ([2]; 10^−7 M/L, incubation time 0.5 h): 80 ± 4.6% | % contraction (PE-induced contraction of rabbit saphenous artery) ([2]; 10^−8 M/L, incubation time 0.5 h): 92 ± 3.0% | % contraction (PE-induced contraction of rabbit saphenous artery) ([2]; 10^−8 M/L, incubation time 2.5 h): 29 ± 9.3% | % contraction (PE-induced contraction of rabbit saphenous artery) ([2]; 10^−9 M/L, incubation time 0.5 h): 103 ± 3.5% | % contraction (PE-induced contraction of rabbit saphenous artery) ([2]; 10^−9 M/L, incubation time 2.5 h): 47 ± 6.2% | % contraction (PE-induced contraction of rabbit saphenous artery) ([2]; 10^−10 M/L, incubation time 0.5 h): 99 ± 3.4% | % contraction (PE-induced contraction of rabbit saphenous artery) ([2]; 10^−10 M/L, incubation time 2.5 h): 67 ± 5.7% | % contraction (PE-induced contraction of rabbit saphenous artery) ([2]; 10^−11 M/L, incubation time 0.5 h): 100 ± 1.5% | % contraction (PE-induced contraction of rabbit saphenous artery) ([2]; 10^−11 M/L, incubation time 2.5 h): 91 ± 2.0% | % contraction (PE-induced contraction of rabbit saphenous artery) ([2]; 10^−12 M/L, incubation time 2.5 h): 98 ± 0% | IC50 ([2]; 0.5 h, 30 min after incubation): 0.911 µM | IC50 ([2]; preincubation period of 2.5 h): 0.0008 µM | thermal stability [3]: stable | fraction unbound [4]: 0.000485 | fraction unbound, times lower than comparative example 1 [5]: 10 times
